Tests used:
[1] = tested on: bioburden (bacteria) on porcine dermis; test: Effect of pulse length on bioburden of porcine dermis electroporated in PAA; format: cell-based; settings: 0.2% PAA
Procedure: […] 0 ms pulses were used as a control condition. All conditions were tested in triplicates.
Electroporation plates (1 cm by 2 cm conducting metal plates) were set 2 mm apart and a 1 mm thick piece of tissue was placed between them. Pulse voltage was set at 80V. Following electroporation each piece of tissue was removed and rinsed in a PAA neutralizing wash for 5 minutes and then placed in 10 ml of PBS.
Stomaching was used to extract the bacteria from each piece of tissue and bacteria counts were performed following incubation of culture plates for 2 days at 37° C. […] Minimal bacterial colony forming units (CFU) were detected on tissue samples following 15 ms pulse.

[2] = H&E histological examination of porcine dermis after electroporation; settings: 0.2% PAA
Procedure: FIG. 1A-C show hematoxylin and eosin (H&E) staining of 1 cm by 1 cm samples of porcine dermis after exposure for 15 milliseconds to one electrical pulse of 0V (FIG. 1A), 40V (FIG. 1B), or 80V (FIG. 1C), according to certain embodiments of the present disclosure.
(§1) To determine the impact of pulse voltage on bacteria present on tissue samples, 1 cm by 1 cm pieces of porcine dermis (1 mm thickness) were electroporated in 2 ml of 0.2% peracetic acid (PAA) at three different pulse voltages: 0V, 40V and 80V. The 0V samples were used as a control condition. Electroporation plates (1 cm by 2 cm conducting metal plates) were set 2 mm apart and a 1 mm thick piece of tissue was placed between them. Electrical pulses were delivered for 10 ms. All conditions were tested in triplicates.
The tissue samples exposed to 40V and 80V pulse voltages had 0 bacteria. […] Porcine dermis was also stained using hematoxylin and eosin (H&E).

[3] = tested on: bacteria present on tissue samples; test: Effect of pulse voltage on bacteria counts of porcine dermis electroporated in PAA; format: cell-based; settings: 0.2% PAA; for bacteria count: 10 ms, triplicates
Procedure: as §1
Following electroporation each piece of tissue was removed and rinsed in a PAA neutralizing wash for 5 minutes and then placed in 10 ml of phosphate buffered saline (PBS). The purpose of the neutralizing wash was to prevent further bacterial kill from residual PAA following electroporation that could confound the results.
Stomaching was used to extract the bacteria from each piece of tissue and bacteria counts were performed following incubation of culture plates for 2 days at 37° C. Stomaching is a mechanical extraction method used to remove microorganisms from samples of foods, fabrics, swabs, or other soft materials such as human or animal tissue. […] The resulting compression and shearing forces elute deep-seated bacteria. Once the agitation process is completed, samples of the eluent are taken for microbial enumeration and subsequent identification.

Compound: CC(=O)OO [PAA, peracetic acid]
- Viable Cell Count ([1]; 80V, pulse length 1 ms, 100 pulses): 430 CFU
- Viable Cell Count ([1]; 80V, pulse length 5 ms, 1 pulse): 300 CFU
- Viable Cell Count ([1]; 80V, pulse length 10 ms, 1 pulse): 140 CFU
- Viable Cell Count ([1]; pulse length 0 ms, no pulses (control condition)): 26000 CFU
- changes in the collagen structure (H&E histology) ([2]; exposure to 40 volts): no detectable change
- changes in the collagen structure (H&E histology) ([2]; exposure to 80 volts): potential changes in the collagen structure
- bacterial colonies ([3]; 0V (control condition, no pulse)): too numerous to count
- bacteria count ([3]; 40V pulse): 0
- bacteria count ([3]; 80V pulse): 0
